In ChEMBL document CHEMBL1201862, “PubChem BioAssay data set” (2004):
Active and inactive are the calls of the source.

Legend:
[1] = molecular target: T1, Heat shock factor protein 1 (Mus musculus, UniProt P38532); experiment: decrease of HSF1-responsive luciferase luminescence – cell-based, NIH3T3, dose retest, confirmation (AID 2382); assay type: functional;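 further: NIH3T3 fibroblasts with HSF1-driven luciferase reporter stressed by proteasome inhibitor MG132; luminescence from HSF1-driven luciferase expression after 8 hours of MG132 stress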
T1 sequence (P38532 whole entry): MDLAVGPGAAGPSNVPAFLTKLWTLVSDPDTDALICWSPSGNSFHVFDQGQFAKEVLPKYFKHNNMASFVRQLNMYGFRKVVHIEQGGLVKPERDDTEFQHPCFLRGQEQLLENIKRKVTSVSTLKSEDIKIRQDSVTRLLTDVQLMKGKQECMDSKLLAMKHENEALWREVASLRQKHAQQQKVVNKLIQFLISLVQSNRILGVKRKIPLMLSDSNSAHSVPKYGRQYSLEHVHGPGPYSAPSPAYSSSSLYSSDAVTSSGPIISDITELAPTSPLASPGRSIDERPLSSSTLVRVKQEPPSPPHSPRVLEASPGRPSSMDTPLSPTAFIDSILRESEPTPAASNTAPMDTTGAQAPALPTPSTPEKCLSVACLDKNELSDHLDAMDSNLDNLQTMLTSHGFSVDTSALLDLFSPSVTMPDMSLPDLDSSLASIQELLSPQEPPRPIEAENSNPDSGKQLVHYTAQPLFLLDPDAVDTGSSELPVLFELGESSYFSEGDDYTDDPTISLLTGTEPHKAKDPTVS

[2] = viability of uninfected HEp-2 cells – cell-based, HTS, cytotoxicity control for RSV inhibitor project, dose response (AID 2410); assay type: functional; settings: human respiratory syncytial virus
[3] = molecular target: T2, Cytochrome P450 1A2 (Homo sapiens, UniProt P05177);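 further: PubChem cytochrome P450 panel assay, CYP1A2 panel member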
T2 sequence (P05177 whole entry): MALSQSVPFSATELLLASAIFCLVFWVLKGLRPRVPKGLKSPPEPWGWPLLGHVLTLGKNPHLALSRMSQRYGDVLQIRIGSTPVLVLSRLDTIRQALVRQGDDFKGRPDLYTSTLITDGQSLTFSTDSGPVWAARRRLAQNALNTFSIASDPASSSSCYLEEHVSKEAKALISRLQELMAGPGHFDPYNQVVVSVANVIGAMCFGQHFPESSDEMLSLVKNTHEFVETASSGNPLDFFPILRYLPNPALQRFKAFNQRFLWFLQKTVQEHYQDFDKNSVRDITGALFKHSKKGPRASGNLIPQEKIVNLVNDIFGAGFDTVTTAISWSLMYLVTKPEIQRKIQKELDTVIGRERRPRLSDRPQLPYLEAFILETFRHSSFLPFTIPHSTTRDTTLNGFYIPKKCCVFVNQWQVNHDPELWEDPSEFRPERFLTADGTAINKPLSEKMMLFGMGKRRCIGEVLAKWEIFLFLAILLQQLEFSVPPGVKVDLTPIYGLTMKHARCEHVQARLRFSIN

[4] = molecular target: Cytochrome P450 3A4 (Homo sapiens, UniProt P08684);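 further: CYP3A4 tested as one member of a cytochrome P450 panel screen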
Sequence of Cytochrome P450 3A4 (P08684 whole entry): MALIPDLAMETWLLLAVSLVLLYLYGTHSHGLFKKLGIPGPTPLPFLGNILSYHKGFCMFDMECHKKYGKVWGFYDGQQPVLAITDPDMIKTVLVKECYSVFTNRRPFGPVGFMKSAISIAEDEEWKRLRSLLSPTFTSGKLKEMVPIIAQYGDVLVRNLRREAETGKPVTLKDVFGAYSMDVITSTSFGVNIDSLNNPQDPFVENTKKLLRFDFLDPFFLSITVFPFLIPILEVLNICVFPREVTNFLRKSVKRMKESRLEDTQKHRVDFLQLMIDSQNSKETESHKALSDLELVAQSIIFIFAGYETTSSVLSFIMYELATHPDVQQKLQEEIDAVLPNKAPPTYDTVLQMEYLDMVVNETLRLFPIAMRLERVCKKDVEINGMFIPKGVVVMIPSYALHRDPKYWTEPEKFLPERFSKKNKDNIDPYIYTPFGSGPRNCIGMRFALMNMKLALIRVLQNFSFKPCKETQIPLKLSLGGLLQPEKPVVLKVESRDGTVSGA

[5] = molecular target: Cytochrome P450 2C19 (Homo sapiens, UniProt P33261); experiment: Cytochrome panel assay with activity outcomes. Panel member name: p450-cyp2c19 Compounds with AC50 equal or less than 10 uM are considered active; assay type: functional; settings: read-out: AC50
Sequence of Cytochrome P450 2C19 (P33261 whole entry): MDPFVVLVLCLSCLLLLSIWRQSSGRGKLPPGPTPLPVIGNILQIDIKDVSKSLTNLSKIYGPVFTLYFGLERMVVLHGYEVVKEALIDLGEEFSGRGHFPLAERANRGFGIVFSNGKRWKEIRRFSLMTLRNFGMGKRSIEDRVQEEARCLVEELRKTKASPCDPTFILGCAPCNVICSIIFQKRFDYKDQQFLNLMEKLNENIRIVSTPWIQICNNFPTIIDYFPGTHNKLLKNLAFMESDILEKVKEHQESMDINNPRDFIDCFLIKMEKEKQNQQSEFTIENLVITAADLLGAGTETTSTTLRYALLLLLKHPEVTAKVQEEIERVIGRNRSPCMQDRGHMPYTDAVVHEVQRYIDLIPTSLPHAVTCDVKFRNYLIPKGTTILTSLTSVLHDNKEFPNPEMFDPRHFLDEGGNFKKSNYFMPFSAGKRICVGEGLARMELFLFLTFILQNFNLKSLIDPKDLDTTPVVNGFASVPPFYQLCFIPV

[6] = test system: Streptococcus sp. 'group A'; experiment: Streptococcus pyogenes SK(-)GAS viability under kanamycin – luminescence, BacTiterGlo, confirmation, counter-screen for streptokinase expression inhibitor project, dose response (AID 1900); assay type: functional, organism-based
[7] = test system: Streptococcus; experiment: GAS UMAA2166 growth inhibition – luminescence, BacTiterGlo, counter-screen for streptokinase expression inhibitor project, dose response (AID 1915); assay type: functional, organism-based;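 further: potency for reduction of bacterial viability or growth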
[8] = NIH3T3 cell viability loss – ATP luminescence, mouse fibroblasts, counter-screen, dose response (AID 2010); assay type: functional, cell-based;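 further: cells exposed to compound for about 90 hours before reading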
[9] = Trypanosoma cruzi growth suppression in host cells – NIH3T3 host cells, beta-gal luminescence, confirmation (AID 2044); assay type: functional, cell-based;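 further: intracellular parasites grown in NIH/3T3 mouse fibroblasts as host cells; luminescent beta-galactosidase reporter signal from transgenic T. cruzi replicating inside host cells; inhibitors lower the luminescence signal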
[10] = molecular target: T3, Streptokinase A (Streptococcus pyogenes serotype M1, UniProt P10520); experiment: viability-normalized secreted streptokinase activity reduction – plasminogen activation absorbance, OD405, dose response (AID 1914); assay type: functional, Streptococcus pyogenes M1 GAS;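 further: secreted streptokinase activity via plasminogen activation per viability signal from cell pellet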
T3 sequence (P10520 whole entry): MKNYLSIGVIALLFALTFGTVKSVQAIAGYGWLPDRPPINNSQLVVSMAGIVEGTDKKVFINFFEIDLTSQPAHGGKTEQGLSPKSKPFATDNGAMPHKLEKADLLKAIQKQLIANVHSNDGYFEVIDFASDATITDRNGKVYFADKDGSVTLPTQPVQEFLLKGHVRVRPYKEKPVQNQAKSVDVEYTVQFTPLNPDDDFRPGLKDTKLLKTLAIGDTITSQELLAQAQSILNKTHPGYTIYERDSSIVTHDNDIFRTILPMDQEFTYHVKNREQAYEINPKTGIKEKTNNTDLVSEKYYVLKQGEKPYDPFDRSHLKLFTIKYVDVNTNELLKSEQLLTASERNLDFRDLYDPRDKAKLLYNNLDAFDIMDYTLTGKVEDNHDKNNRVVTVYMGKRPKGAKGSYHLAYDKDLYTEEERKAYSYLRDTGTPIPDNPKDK

[11] = Luminescence Cell-Based Dose Retest to Confirm Inhibitors of Cancer Stem Cells. [Related pubchem assays (depositor defined):AID2717, AID2721]; assay type: functional, Homo sapiens; settings: Homo sapiens
[12] = molecular target: Cytochrome P450 2D6 (Homo sapiens, UniProt P10635);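 further: CYP2D6 member of a cytochrome P450 panel assay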
Sequence of Cytochrome P450 2D6 (P10635 whole entry): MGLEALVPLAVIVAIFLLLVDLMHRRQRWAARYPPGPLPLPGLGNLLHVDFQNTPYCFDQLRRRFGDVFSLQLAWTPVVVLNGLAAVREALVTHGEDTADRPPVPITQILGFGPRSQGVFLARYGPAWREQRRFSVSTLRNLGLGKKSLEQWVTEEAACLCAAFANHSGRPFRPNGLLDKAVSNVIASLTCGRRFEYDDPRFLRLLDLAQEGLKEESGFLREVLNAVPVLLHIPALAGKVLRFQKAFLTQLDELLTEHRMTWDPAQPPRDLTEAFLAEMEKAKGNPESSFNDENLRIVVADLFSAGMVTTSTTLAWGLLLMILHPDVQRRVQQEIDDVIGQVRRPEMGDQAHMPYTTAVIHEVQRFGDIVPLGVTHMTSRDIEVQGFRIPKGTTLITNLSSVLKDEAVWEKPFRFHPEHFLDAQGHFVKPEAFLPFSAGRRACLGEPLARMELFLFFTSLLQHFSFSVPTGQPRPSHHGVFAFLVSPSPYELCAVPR

[13] = molecular target: Cytochrome P450 2C9 (Homo sapiens, UniProt P11712)
Sequence of Cytochrome P450 2C9 (P11712 whole entry): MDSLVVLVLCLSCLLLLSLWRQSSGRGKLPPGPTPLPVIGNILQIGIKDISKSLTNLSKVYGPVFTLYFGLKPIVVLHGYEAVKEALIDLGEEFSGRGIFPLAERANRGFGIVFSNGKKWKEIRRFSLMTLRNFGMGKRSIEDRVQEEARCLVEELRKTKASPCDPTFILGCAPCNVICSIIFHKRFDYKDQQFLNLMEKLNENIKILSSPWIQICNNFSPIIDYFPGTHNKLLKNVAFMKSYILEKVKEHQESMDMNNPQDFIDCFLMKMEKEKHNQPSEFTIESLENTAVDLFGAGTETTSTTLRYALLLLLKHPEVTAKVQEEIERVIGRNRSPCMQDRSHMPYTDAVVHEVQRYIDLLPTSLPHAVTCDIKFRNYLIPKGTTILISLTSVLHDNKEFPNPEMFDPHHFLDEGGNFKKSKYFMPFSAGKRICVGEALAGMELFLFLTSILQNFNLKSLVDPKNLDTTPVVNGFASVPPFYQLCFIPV

[14] = molecular target: T4, Protein RecA (Mycobacterium tuberculosis, UniProt P9WHJ3); experiment: Fluorescence Cell-Free Homogeneous Dose Retest to Identify Inhibitors of RecA-Intein Splicing Activity. [Related pubchem assays (depositor defined):AID2097, AID2223, AID489010, AID492950]; assay type: functional
T4 sequence (P9WHJ3 whole entry): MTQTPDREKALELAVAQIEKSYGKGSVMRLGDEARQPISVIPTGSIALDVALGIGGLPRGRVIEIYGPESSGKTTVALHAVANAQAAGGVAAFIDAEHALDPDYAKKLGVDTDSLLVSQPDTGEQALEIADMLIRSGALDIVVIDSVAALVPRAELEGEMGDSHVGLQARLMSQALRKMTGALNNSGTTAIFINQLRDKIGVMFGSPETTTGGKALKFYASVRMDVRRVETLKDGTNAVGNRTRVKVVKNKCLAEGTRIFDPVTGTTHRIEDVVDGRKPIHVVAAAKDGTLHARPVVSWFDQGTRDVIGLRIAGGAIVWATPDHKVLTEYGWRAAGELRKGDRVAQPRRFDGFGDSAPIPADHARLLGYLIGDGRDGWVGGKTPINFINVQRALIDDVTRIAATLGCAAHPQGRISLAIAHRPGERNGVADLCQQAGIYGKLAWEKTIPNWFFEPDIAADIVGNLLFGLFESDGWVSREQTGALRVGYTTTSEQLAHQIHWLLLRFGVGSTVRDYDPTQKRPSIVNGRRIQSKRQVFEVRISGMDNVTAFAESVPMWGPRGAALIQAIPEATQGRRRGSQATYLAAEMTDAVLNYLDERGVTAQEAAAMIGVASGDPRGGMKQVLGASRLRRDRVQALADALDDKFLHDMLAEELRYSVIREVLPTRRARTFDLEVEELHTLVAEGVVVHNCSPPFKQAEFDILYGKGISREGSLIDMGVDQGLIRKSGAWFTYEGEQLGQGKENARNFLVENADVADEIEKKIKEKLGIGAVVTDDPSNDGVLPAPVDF

[15] = molecular target: T5, Replicative DNA helicase DnaB (Mycobacterium tuberculosis, UniProt P9WMR3); experiment: DnaB intein splicing inhibitors, dose response, biochemical, cell-free fluorescence (AID 449749); assay type: functional
T5 sequence (P9WMR3 whole entry): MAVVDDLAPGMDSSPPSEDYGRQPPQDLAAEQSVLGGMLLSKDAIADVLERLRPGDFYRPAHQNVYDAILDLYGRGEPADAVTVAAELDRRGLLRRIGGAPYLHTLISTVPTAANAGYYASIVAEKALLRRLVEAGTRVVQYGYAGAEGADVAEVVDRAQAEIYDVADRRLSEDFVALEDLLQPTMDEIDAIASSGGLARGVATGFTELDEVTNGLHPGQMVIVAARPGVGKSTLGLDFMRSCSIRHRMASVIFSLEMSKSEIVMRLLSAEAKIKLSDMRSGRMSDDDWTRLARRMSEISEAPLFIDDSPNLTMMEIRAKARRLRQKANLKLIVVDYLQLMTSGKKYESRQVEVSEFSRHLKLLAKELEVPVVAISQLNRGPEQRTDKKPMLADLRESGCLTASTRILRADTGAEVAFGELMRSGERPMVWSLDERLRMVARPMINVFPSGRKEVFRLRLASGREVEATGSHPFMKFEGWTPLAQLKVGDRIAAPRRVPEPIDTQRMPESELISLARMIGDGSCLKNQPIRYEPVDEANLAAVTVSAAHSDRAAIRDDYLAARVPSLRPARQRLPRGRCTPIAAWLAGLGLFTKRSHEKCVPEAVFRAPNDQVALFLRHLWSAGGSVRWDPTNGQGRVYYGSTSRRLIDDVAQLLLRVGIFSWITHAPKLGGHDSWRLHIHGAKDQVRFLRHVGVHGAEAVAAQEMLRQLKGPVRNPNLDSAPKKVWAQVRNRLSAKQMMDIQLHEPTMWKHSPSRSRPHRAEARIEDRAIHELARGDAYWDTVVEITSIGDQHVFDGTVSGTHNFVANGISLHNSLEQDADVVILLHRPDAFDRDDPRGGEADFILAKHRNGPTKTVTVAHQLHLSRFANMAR

| Structure (SMILES) | EC50 [1] | other results |
| --- | --- | --- |
| Cc1ccc(S(=O)(=O)N(C)CC(=O)N2CCc3ccccc32)cc1 | > 195 µM (not active) |  |
| O=S(=O)(c1cccc(-c2csc(-c3cccnc3)n2)c1)N1CCCCC1 |  | CC50 [2]: 28.9 µM (active) |
| Cc1cccc(OCC(=O)Nc2cccc(C(=O)NCC(C)C)c2)c1 | > 195 µM (not active) |  |
| O=[N+]([O-])c1ccc2nc(SCc3ccccc3Cl)sc2c1 |  | CC50 [2]: 29 µM (active) |
| O=C(NCc1nc2ccccc2[nH]1)C1=C[C@@H](c2csc3ccccc23)C[C@@H](OCc2ccc(CO)cc2)O1 |  | CC50 [2]: 39 µM (active) |
| Cc1ccc(-c2nn3c(C)nnc3s2)cc1N |  | CC50 [2]: 22.1 µM (active) |
| Cc1cc(C2(c3cc(C)c(NC(=O)CN4CCOCC4)c(C)c3)CCCCC2)cc(C)c1NC(=O)CN1CCOCC1 | > 195 µM (not active) |  |
| Cc1c(C(=O)NNC(=O)Nc2ccc([N+](=O)[O-])cc2)oc2ccccc12 |  | CC50 [2]: > 50 µM (active) |
| COc1ccc(-c2cc(C(=O)Nc3ccc(S(N)(=O)=O)cc3)c3ccccc3n2)cc1OC | > 195 µM (not active) |  |
| Cc1cc(C(=O)CSc2ccc(F)cc2)cc(C)c1OC(=S)N(C)C | < 0.16 µM (active) |  |
| COc1cccc(-c2c(NC(C)=O)n(C)c3ccccc3c2=O)c1 | > 195 µM (not active) |  |
| CCS(=O)(=O)N1CCN(C(=O)c2ccccc2)CC1 | > 195 µM (not active) |  |
| O=C(CSc1ccc(-c2ccccn2)nn1)NC1CCCCC1 | > 195 µM (not active) |  |
| CC(C)=CCN1CCN(Cc2cc(F)ccc2-n2nc(C)cc2C)CC1CCO (stereo not given) | > 195 µM (not active) |  |
| CCOC(=O)c1ccc(N/C=C/C(=O)c2ccc(OC)cc2)cc1 | > 195 µM (not active) | AC50 [3]: 22.4 µM (inconclusive); AC50 [4]: 6.31 µM (inconclusive); AC50 [5]: 2.82 µM (inconclusive) |
| CCC1CCCCN1CCCNC(=O)CSc1nc2nc(C)c(Cc3ccc(C)cc3)c(C)n2n1 (stereo not given) | > 195 µM (not active) |  |
| COc1nc(N)c(C#N)c(-c2ccc(N(C)CCC#N)cc2)c1C#N | 15.6 µM (active) |  |
| CCN(CC)CCNCc1cc(Cl)ccc1OCc1ccccc1F | > 195 µM (not active) |  |
| CCOC(=O)c1c(NC(=O)COC(=O)c2nccnc2N)sc(C(=O)N(C)C)c1C | > 195 µM (not active) |  |
| COc1ccccc1CCC(=O)OCC(=O)Nc1cccc(S(=O)(=O)N2CCOCC2)c1 | > 195 µM (not active) |  |
| CN1CCc2c(sc3c2c(=O)n(-c2ccc(Cl)cc2)c2nncn32)C1 | > 195 µM (not active) |  |
| Cc1ccnc(NC(c2ccsc2)c2ccc3ccc(C)nc3c2O)c1 (stereo not given) | > 195 µM (not active) | EC50 [6]: 10.6 µM (active); EC50 [7]: 20.5 µM (active); EC50 [8]: 9.38 µM (active); EC50 [9]: 1.64 µM (active); EC50 [10]: > 150 µM (not active) |
| Cc1cc(O)nc(CCl)n1 | > 195 µM (not active) |  |
| CC(C)(C)C1CCc2c(sc(NC(=O)CSc3nc[nH]n3)c2C#N)C1 (stereo not given) | > 195 µM (not active) | AC50 [11]: 4.46 µM (active) |
| COc1ccc(CCNC(=O)Cc2nn(C)c(=O)c3ccccc23)cc1OC | > 195 µM (not active) |  |
| CCC(C)[C@H](NC(=O)NC1CCN(Cc2ccccc2)CC1)C(=O)OC (stereo not given in full) |  | AC50 [12]: 28.2 µM (inconclusive); AC50 [13]: 2.24 µM (inconclusive); EC50 [14]: 2.96 µM (active); AC50 [15]: 39.9 µM (active) |
| CCOc1ccc(NCc2nnc(SCc3ccccc3Cl)n2-c2ccccc2)cc1 | > 195 µM (not active) | AC50 [12]: 25.1 µM (inconclusive) |
